The test concerns the target T1, budding yeast cohesin tetramer (Smc1, Smc3, Scc1/Mcd1, Scc3) with Scc2-Scc4 loader complex (Saccharomyces cerevisiae, UniProt P32908+P47037).
T1 construct: tetramer overexpressed in S. cerevisiae W303-1a; Smc1-3xStrepII, Mcd1-8xHis-3xHA; loader Scc2-3xmyc-3xStrepII with Scc4; tags kept; with Sister chromatid cohesion protein 1; Cohesin subunit SCC3; Sister chromatid cohesion protein 2; MAU2 chromatid cohesion factor homolog
The test can be described thus: [gamma-32P]ATP hydrolysis, thin-layer chromatography. It is filed as biochemical. The settings on record: 30 nM cohesin, 60 nM Scc2/4, 0.2 nM lambda-DNA, 400 uM ATP, 0.5 mM MgCl2, 20 mM NaCl, pH 7.0, 29 C; labelled compound.

Turning to `Nc1ncnc2c1ncn2[C@@H]1O[C@H](COP(=O)(O)OP(=O)(O)OP(=O)(O)O)[C@@H](O)[C@H]1O` [ATP], the “[gamma-32P]ATP hydrolysis, thin-layer chromatography” value was “our purified Scc2-Scc4 complex was able to stimulate cohesin ATPase activity”.

These data come from paper PMC6881171, “A conserved ATP- and Scc2/4-dependent activity for cohesin in tethering DNA molecules” (Science Advances, 2019).
